Where two headings read alike, the source gives them in different places.

One assay addresses T1, JAK2 (Homo sapiens, UniProt O60674).
T1 construct: host or cells: baculovirus expression system
In words: Recombinant Human JAK2 Kinase Assay (TRF). The assay is classed as biochemical. The conditions noted are these: read-out: JAK2 Potency. Here is the method:
Compounds were tested for their ability to inhibit the kinase activity of baculovirus-expressed JAK2 using the TRF detection system. […] The plates were coated first with 100 μL/well of 10 μg/mL Neutravidin (Pierce #31000, Rockford, Ill.) in TBS at 37° C. for 2 hours, followed by 100 μL/well of 1 μg/mL 15-mer peptide substrate (biotinyl-amino-hexanoyl-[…]-amide, Infinity Biotech Research and Resource, Aston, Pa.) at 37° C. for another hour. The JAK2 assay mixture (total volume=100 μL/well) consisting of 20 mM HEPES (pH 7.2), 0.2 μM ATP, 1 mM MnCl2, 0.1% BSA, and test compound (diluted in DMSO; 2.5% DMSO final in assay) was then added to the assay plate. Enzyme (15 ng/ml JAK2) was added and the reaction was allowed to proceed at room temperature for 20 minutes. Detection of the phosphorylated product was performed by adding 100 μL/well of Eu—N1 labeled PY100 antibody (PerkinElmer Life Sciences #AD0041, Boston, Mass.).

The target of another assay is T2, ALK (Homo sapiens, UniProt Q9UM73).
T2 construct: host or cells: baculovirus expression system
T2 sequence (Q9UM73 19-1620): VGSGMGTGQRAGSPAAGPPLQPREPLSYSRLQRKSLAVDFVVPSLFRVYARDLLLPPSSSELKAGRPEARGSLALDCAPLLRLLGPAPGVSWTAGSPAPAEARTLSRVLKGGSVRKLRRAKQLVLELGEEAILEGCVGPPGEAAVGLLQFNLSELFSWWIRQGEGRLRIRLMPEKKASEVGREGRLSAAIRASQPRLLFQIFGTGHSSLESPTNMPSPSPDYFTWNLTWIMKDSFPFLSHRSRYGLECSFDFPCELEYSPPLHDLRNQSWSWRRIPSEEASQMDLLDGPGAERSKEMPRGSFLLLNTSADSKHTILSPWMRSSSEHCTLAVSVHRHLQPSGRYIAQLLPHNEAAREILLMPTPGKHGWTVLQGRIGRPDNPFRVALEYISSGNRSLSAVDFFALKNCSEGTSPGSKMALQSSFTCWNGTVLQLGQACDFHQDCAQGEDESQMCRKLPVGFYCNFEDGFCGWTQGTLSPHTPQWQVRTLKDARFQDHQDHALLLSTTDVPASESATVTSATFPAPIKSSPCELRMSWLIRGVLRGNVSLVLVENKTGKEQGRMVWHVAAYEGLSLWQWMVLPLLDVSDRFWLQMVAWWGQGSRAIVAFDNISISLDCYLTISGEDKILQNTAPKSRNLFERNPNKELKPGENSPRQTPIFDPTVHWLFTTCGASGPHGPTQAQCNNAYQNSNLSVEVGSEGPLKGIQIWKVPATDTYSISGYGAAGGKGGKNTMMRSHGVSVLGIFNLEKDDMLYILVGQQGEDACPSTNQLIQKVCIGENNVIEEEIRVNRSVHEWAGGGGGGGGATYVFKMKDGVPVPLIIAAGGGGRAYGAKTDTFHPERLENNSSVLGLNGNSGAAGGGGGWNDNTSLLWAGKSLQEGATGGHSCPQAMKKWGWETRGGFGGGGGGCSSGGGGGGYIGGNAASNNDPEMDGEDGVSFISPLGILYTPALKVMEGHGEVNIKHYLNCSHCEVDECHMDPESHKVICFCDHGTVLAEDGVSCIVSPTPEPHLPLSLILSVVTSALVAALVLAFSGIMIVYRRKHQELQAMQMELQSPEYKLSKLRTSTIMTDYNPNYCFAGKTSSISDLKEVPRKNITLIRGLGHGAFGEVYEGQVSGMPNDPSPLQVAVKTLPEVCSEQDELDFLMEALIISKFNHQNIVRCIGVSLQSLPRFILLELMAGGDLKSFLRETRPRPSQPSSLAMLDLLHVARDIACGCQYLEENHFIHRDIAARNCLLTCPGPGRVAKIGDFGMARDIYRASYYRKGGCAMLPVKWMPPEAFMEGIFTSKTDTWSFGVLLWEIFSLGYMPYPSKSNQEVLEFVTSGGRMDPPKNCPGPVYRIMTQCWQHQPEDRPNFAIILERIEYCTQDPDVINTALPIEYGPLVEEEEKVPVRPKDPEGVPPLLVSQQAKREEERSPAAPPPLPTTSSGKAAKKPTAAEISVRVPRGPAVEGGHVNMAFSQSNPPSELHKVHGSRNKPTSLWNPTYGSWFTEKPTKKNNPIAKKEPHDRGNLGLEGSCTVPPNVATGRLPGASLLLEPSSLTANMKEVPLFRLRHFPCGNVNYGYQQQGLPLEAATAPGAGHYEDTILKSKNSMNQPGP
In words: ALK Kinase Assay (ELISA/TRF, PLC-γ substrate). The assay is classed as biochemical. Conditions: read-out: ALK Potency. Here is the method: Briefly, each 96-well plate was coated with […] of 10 μg/mL substrate (phospholipase C-γ) in Tris-buffered saline (TBS). […] The reaction was initiated by adding enzyme (30 ng/ml ALK) and was allowed to proceed at 37° C. for 15 minutes. Detection of the phosphorylated product was performed by adding 100 μl/well of Eu—N1 labeled PT66 antibody (Perkin Elmer # AD0041).
Data analysis was performed using ActivityBase (IDBS, Guilford, UK). IC50 values were calculated by plotting percent inhibition versus log10 of the concentration of compound and fitting to the nonlinear regression sigmoidal dose-response (variable slope) equation in XLFit (IDBS, Guilford, UK).

[1] abbreviates: JAK2 kinase inhibition, 0.2 μM ATP.
The mark [2] stands for this setting: ALK kinase inhibition, 1 μM ATP.

T1 sequence (O60674 whole entry): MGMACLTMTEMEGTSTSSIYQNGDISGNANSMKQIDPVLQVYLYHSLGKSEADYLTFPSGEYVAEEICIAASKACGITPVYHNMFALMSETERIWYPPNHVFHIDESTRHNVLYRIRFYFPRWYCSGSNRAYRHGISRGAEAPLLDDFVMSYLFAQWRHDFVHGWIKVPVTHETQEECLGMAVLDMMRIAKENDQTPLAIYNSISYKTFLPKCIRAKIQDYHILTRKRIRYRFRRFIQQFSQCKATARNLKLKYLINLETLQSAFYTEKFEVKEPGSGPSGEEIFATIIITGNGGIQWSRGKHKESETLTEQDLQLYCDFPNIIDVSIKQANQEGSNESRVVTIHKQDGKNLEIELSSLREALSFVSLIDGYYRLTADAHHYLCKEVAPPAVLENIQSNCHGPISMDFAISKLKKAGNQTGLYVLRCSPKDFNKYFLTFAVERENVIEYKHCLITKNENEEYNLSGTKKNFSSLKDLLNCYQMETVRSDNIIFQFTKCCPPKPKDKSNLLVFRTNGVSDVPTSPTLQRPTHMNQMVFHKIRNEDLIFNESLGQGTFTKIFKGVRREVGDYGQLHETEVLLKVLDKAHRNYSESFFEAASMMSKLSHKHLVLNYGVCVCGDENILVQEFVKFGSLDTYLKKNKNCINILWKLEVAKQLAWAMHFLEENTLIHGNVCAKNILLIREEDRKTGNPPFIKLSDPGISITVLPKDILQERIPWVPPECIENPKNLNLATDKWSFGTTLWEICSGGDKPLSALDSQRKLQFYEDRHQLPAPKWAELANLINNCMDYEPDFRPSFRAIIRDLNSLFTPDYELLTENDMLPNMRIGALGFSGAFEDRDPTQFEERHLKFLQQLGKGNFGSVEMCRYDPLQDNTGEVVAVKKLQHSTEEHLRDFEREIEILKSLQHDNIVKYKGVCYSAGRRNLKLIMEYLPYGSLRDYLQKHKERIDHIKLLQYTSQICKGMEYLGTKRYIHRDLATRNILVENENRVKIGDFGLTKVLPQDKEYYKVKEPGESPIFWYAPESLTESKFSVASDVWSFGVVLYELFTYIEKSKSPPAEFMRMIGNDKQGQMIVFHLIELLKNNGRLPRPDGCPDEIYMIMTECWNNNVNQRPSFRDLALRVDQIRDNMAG

With `CN(c1ccccc1-c1ccc2cnc(Nc3ccc4cn(CCN5CCOCC5)nc4c3)nn12)S(C)(=O)=O` [Example 1342, N-Methyl-N-(2-{2-[2-(2-morpholin-4-yl-ethyl)-2H-indazol-6-ylamino]-pyrrolo[2,1-f][1,2,4]triazin-7-yl}-phenyl)-methanesulfonamide], the IC50 was less than 100 nM at JAK2 (setting [1]) and 100 to 1000 nM on ALK (setting [2]).

For `CN(c1ccccc1-c1ccc2cnc(Nc3ccc4c(c3)CCC(N3CCOCC3)CC4)nn12)S(C)(=O)=O` (stereo not drawn) [Example 615, N-Methyl-N-{2-[2-(7-morpholin-4-yl-6,7,8,9-tetrahydro-5H-benzocyclohepten-2-ylamino)-pyrrolo[2,1-f][1,2,4]triazin-7-yl]-phenyl}-methanesulfonamide], the IC50 on JAK2 (setting [1]) and on ALK (setting [2]) was less than 100 nM each time.

On to `COc1cc(C2CCN(CC(=O)NC(CO)CO)CC2)ccc1Nc1ncc2ccc(-c3ccccc3OC)n2n1` [Example 1279, N-(2-Hydroxy-1-hydroxymethyl-ethyl)-2-(4-{3-methoxy-4-[7-(2-methoxy-phenyl)-pyrrolo[2,1-f][1,2,4]triazin-2-ylamino]-phenyl}-piperidin-1-yl)-acetamide], for which the values for the IC50 on JAK2 (setting [1]) and at ALK (setting [2]) were 100 to 1000 nM and less than 100 nM, respectively.

For `Cn1ncc2ccc(Nc3ncc4ccc(-c5cccc(S(=O)(=O)NC(C)(C)C)c5)n4n3)cc21` [Example 1317, N-tert-Butyl-3-[2-(1-methyl-1H-indazol-6-ylamino)-pyrrolo[2,1-f][1,2,4]triazin-7-yl]-benzenesulfonamide], the IC50 was less than 100 nM at JAK2 (setting [1]) and 1000 to 10000 nM on ALK (setting [2]).

As for `CC(=O)Nc1cc(Nc2ncc3ccc(-c4cccnc4)n3n2)ccc1C(C)C` [Example 304, N-[2-Isopropyl-5-(7-pyridin-3-yl-pyrrolo[2,1-f][1,2,4]triazin-2-ylamino)-phenyl]-acetamide], the figures for the IC50 at JAK2 (JAK2 Kinase Inhibition) and on ALK (ALK Kinase Inhibition) were less than 100 nM and 1000 to 10000 nM, respectively.

Regarding `NC(=O)CN1CCC(c2ccc(Nc3ncc4ccc(-c5cccc(S(=O)(=O)N6CCCC6)c5)n4n3)cc2)CC1` [Example 928, 2-[4-(4-{7-[3-(Pyrrolidine-1-sulfonyl)-phenyl]-pyrrolo[2,1-f][1,2,4]triazin-2-ylamino}-phenyl)-piperidin-1-yl]-acetamide], the figures for the IC50 at JAK2 (setting [1]) and on ALK (setting [2]) were less than 100 nM and 100 to 1000 nM, respectively.

As to `CN(c1ccccc1-c1ccc2cnc(Nc3ccncc3)nn12)S(C)(=O)=O` [Example 1364, N-Methyl-N-{2-[2-(pyridin-4-ylamino)-pyrrolo[2,1-f][1,2,4]triazin-7-yl]-phenyl}-methanesulfonamide], the IC50 at JAK2 (setting [1]) is less than 100 nM; on ALK (setting [2]) it was 1000 to 10000 nM.

With `COc1ccccc1-c1ccc2cnc(Nc3ccc(N4CCN(C)CC4)cn3)nn12` [Example 1177, [7-(2-Methoxy-phenyl)-pyrrolo[2,1-f][1,2,4]triazin-2-yl]-[5-(4-methyl-piperazin-1-yl)-pyridin-2-yl]-amine], the IC50 at JAK2 (setting [1]) was less than 100 nM; on ALK (setting [2]), 100 to 1000 nM.

Take `COc1ccc(-c2ccc3cnc(Nc4ccc(N5CCC[C@@H](C(=O)N6CCN(C)CC6)C5)cc4OC)nn23)cn1` [Example 464, ((R)-1-{3-Methoxy-4-[7-(6-methoxy-pyridin-3-yl)-pyrrolo[2,1-f][1,2,4]triazin-2-ylamino]-phenyl}-piperidin-3-yl)-(4-methyl-piperazin-1-yl)-methanone]: the IC50 is less than 100 nM on JAK2 (JAK2 Kinase Inhibition) and 100 to 1000 nM on ALK (ALK Kinase Inhibition).

As for `CN1CCc2ccc(Nc3ncc4ccc(-c5cccc(S(=O)(=O)NC(C)(C)C)c5)n4n3)cc2C1` [Example 931, N-tert-Butyl-3-[2-(2-methyl-1,2,3,4-tetrahydro-isoquinolin-7-ylamino)-pyrrolo[2,1-f][1,2,4]triazin-7-yl]-benzenesulfonamide], the IC50 at JAK2 (setting [1]) was less than 100 nM; on ALK (setting [2]) it was 100 to 1000 nM.

Regarding `C[C@H](O)CN1CCN(c2cccc(Nc3ncc4ccc(-c5cccc(Cl)c5)n4n3)c2)CC1` [Example 212, (S)-1-(4-{3-[7-(3-Chloro-phenyl)-pyrrolo[2,1-f][1,2,4]triazin-2-ylamino]-phenyl}-piperazin-1-yl)-propan-2-ol], the IC50 on JAK2 (JAK2 Kinase Inhibition) and on ALK (ALK Kinase Inhibition) was less than 100 nM throughout.

As to `COc1ccccc1-c1ccc2cnc(Nc3ccc(N4CCC(N5CCOCC5)CC4)cc3)nn12` [Example 334, [7-(2-Methoxy-phenyl)-pyrrolo[2,1-f][1,2,4]triazin-2-yl]-[4-(4-morpholin-4-yl-piperidin-1-yl)-phenyl]-amine], the IC50 on JAK2 (JAK2 Kinase Inhibition) and at ALK (ALK Kinase Inhibition) was less than 100 nM throughout.

As for “7-(2-methoxy-phenyl)-pyrrolo(2,1-f)(1,2,4)triazin-2-yl-6-amino-1′-methyl-spiro(2H-1-benzopyran-2,4′-piperidine) [Example 377]”, the IC50 at JAK2 (JAK2 Kinase Inhibition) and at ALK (ALK Kinase Inhibition) was less than 100 nM in each case.

`Cc1cc(-c2ccc3cnc(Nc4ccc(N5CCOCC5)cc4)nn23)cnc1F` [Example 1047, [7-(6-Fluoro-5-methyl-pyridin-3-yl)-pyrrolo[2,1-f][1,2,4]triazin-2-yl]-(4-morpholin-4-yl-phenyl)-amine]: the values for the IC50 at JAK2 (setting [1]) and at ALK (setting [2]) were less than 100 nM and 1000 to 10000 nM, respectively.

As to `COc1cc(C2CCN(C[C@@H](C)O)CC2)ccc1Nc1ncc2ccc(-c3cc(Cl)ccc3OC)n2n1` [Example 794, (R)-1-(4-{4-[7-(5-Chloro-2-methoxy-phenyl)-pyrrolo[2,1-f][1,2,4]triazin-2-ylamino]-3-methoxy-phenyl}-piperidin-1-yl)-propan-2-ol], the IC50 was 100 to 1000 nM on JAK2 (setting [1]) and less than 100 nM on ALK (setting [2]).

For `O=S(=O)(c1cccc(-c2ccc3cnc(Nc4ccc(C5CCN(CCO)CC5)cc4)nn23)c1)N1CCOCC1` [Example 677, 2-[4-(4-{7-[3-(Morpholine-4-sulfonyl)-phenyl]-pyrrolo[2,1-f][1,2,4]triazin-2-ylamino}-phenyl)-piperidin-1-yl]-ethanol], the IC50 was less than 100 nM on JAK2 (setting [1]) and 100 to 1000 nM on ALK (setting [2]).

Take `COc1ccccc1-c1ccc2cnc(Nc3ccc4c(c3)CC(=O)N4C)nn12` [Example 359, 5-[7-(2-Methoxy-phenyl)-pyrrolo[2,1-f][1,2,4]triazin-2-ylamino]-1-methyl-1,3-dihydro-indol-2-one]: the IC50 is less than 100 nM on JAK2 (JAK2 Kinase Inhibition) and 100 to 1000 nM on ALK (ALK Kinase Inhibition).

On to `CN1CCN(c2ccc(Nc3ncc4ccc(-c5cccc(Cl)c5)n4n3)cc2)CC1` [Example 26, [7-(3-Chloro-phenyl)-pyrrolo[2,1-f][1,2,4]triazin-2-yl]-[4-(4-methyl-piperazin-1-yl)-phenyl]-amine], for which the IC50 on JAK2 (JAK2 Kinase Inhibition) and on ALK (ALK Kinase Inhibition) was less than 100 nM each time.

`CN(c1ccccc1-c1ccc2cnc(Nc3ccc4c(cnn4CCN4CCOCC4)c3)nn12)S(C)(=O)=O` [Example 1333, N-Methyl-N-(2-{2-[1-(2-morpholin-4-yl-ethyl)-1H-indazol-5-ylamino]-pyrrolo[2,1-f][1,2,4]triazin-7-yl}-phenyl)-methanesulfonamide]: the IC50 is less than 100 nM at JAK2 (setting [1]) and 100 to 1000 nM at ALK (setting [2]).

For `C[S+]([O-])c1ccccc1-c1ccc2cnc(Nc3ccc(N4CCOCC4)cc3)nn12` (stereo not drawn) [Example 405, [7-(2-Methanesulfinyl-phenyl)-pyrrolo[2,1-f][1,2,4]triazin-2-yl]-(4-morpholin-4-yl-phenyl)-amine], the results for the IC50 at JAK2 (JAK2 Kinase Inhibition) and at ALK (ALK Kinase Inhibition) were less than 100 nM and 1000 to 10000 nM, respectively.

In the case of `COc1cccc(Nc2ncc3ccc(-c4cccc(Cl)c4)n3n2)c1` [Example 146, [7-(3-Chloro-phenyl)-pyrrolo[2,1-f][1,2,4]triazin-2-yl]-(3-methoxy-phenyl)-amine], the IC50 on JAK2 (JAK2 Kinase Inhibition) is less than 100 nM; at ALK (ALK Kinase Inhibition), greater than 10000 nM.

The values are drawn from patent US8471005B2 (Cephalon, Inc., priority 2008, dated 2013).
